Source: patent US20200405697A1, “Antitumor Agent” (Taiho Pharmaceutical Co., Ltd, priority 2017, published 2020)

Legend:
[1] = molecular target: T1, human RNR (histidine tagged human M1 and human M2 proteins) (Homo sapiens, UniProt P23921); experiment: Human RNR inhibition effect (dCDP formation from CDP); assay type: biochemical; settings: 10 μM CDP, 37° C. for 30 minutes, read-out: RNR inhibitory activity IC50
T1 construct: made in house; host or cells: Escherichia coli
T1 sequence (P23921 1-792): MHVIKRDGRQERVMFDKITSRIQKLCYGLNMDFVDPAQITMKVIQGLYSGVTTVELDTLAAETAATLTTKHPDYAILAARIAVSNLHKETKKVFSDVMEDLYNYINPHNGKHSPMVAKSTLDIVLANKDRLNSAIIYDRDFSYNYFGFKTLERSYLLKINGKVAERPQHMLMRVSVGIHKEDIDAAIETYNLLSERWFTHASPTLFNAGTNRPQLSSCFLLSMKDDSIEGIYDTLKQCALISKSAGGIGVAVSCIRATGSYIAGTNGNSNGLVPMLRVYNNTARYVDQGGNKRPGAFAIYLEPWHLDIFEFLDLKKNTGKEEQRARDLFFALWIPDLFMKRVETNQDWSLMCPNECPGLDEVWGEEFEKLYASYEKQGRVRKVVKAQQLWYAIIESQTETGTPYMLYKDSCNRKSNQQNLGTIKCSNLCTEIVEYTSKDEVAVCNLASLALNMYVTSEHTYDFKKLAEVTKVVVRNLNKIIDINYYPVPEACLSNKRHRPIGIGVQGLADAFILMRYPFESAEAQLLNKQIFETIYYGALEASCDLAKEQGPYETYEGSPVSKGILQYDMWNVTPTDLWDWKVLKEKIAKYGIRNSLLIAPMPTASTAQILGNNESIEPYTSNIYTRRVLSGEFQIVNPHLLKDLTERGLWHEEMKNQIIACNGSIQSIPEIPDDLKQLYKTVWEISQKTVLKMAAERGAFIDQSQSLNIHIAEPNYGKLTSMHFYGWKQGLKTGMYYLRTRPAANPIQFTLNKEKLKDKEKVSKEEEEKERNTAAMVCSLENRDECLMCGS
Description: The inhibitory activity against the ribonucleotide reduction reaction (RNR inhibitory activity) of the Example compound was determined by measuring the formation of deoxycytidine diphosphate (hereinafter referred to as dCDP) from cytidine diphosphate (hereinafter referred to as CDP) by the following method.
Human M1 subunit (isoform 1, GenBank accession No: NM_001033), to which a histidine tag is fused at the amino terminus, and human M2 subunit (mutant lacking amino terminal 59 amino acids of isoform 2, GenBank accession No: NM_001034), to which a histidine tag is fused, were overexpressed in Escherichia coli and were solubilized after collection, and histidine tagged human M1 and histidine tagged human M2 proteins were purified on a nickel chelate column. A mixture of the histidine tagged human M1 and histidine tagged human M2 proteins was used as RNR in the ribonucleotide reduction reaction. [to]
First, Example compounds were serially diluted with DMSO. Next, human M1 protein and human M2 protein were added to a 0.02% aqueous albumin solution derived from fetal bovine serum, a DMSO solution of the Example compound or the control DMSO solution (final concentration of DMSO was 1%) was added, and the mixture was allowed to stand for 20 minutes. Thereafter, the reaction buffer [50 mM HEPES buffer (pH 7.2) at the final concentration, 4 mM magnesium acetate at the final concentration, 100 mM potassium chloride at the final concentration, 6 mM dithiothreitol at the final concentration, 2 mM adenosine triphosphate at the final concentration, 0.24 mM nicotinamide adenine dinucleotide phosphate at final concentration] and 10 μM CDP at the final concentration were added and incubated at 37° C. for 30 minutes to perform ribonucleotide reduction reaction. Immediately after the reaction, the reaction was stopped by heating at 100° C. for 15 minutes, followed by centrifugation at 10,000 rpm for 10 minutes. After the centrifugation, a portion (5 μL) of the resulting supernatant was analyzed with a high performance liquid chromatography (Shimadzu Corporation, Prominence) using Shim-pack XR-ODS (manufactured by Shimadzu GLC Co., 3.0×100 mm).

[2] = test system: A549 (Human lung cancer cell line); experiment: Effect of combination of sulfonamide compound and other antitumor agent (CellTiter-Glo, combination index): A549
Description: Each cell line was seeded at 90 L/well to a 96-well culture plate (Thermo Fisher Scientific, Inc.) according to the above tables. The cell-seeded plate was cultured in an incubator set to 37° C. and 500 CO2. On the day following seeding, varying concentrations of the sulfonamide compound and the other antitumor agent were added in combination to the cells. […] The serial dilutions of each compound, or DW was added at 5μL/well to the plate such that each compound and DW, or the sulfonamide compound and the other antitumor agent were combined. […] The plate after the addition was cultured at 37° C. for 3 days under 5% CO2 conditions.
Three days later, CellTiter-Glo(R) 2.0 Reagent (Promega Corporation) was added at 100 μL/well, and the amount of luminescence was measured using a plate reader EnSpire(R) Multimode Plate Reader (PerkinElmer Co., Ltd.).
An average value from 3 wells was calculated as to each drug condition from the obtained data, and cell survival rate normalized against control wells supplemented with the vehicle (DW) was calculated. A Fa (fractional inhibition) value was calculated by subtracting the cell survival rate from 1.

[3] = Example Compound 14 4420 nM + Midostaurin 251 nM
[4] = Example Compound 209A 952 nM + Midostaurin 251 nM
[5] = Example Compound 235A 1170 nM + Midostaurin 251 nM
[6] = Example Compound 14 1970 nM + Trifluridine 288 nM
[7] = Example Compound 14 2950 nM + Trifluridine 431 nM
[8] = Example Compound 209A 635 nM + Trifluridine 431 nM
[9] = Example Compound 235A 780 nM + Trifluridine 431 nM
[10] = Example Compound 14 4420 nM + Luminespib 13.5 nM
[11] = Example Compound 209A 952 nM + Luminespib 13.5 nM
[12] = Example Compound 235A 1750 nM + Luminespib 8.13 nM
[13] = Example Compound 14 4420 nM + Azacytidine 4080 nM
[14] = Example Compound 209A 635 nM + Azacytidine 2740 nM
[15] = Example Compound 209A 952 nM + Azacytidine 4110 nM
[16] = Example Compound 235A 780 nM + Azacytidine 2740 nM
[17] = Example Compound 235A 1170 nM + Azacytidine 4110 nM
[18] = Example Compound 14 4420 nM + 5-Fluorouracil 2700 nM
[19] = Example Compound 209A 952 nM + 5-Fluorouracil 4310 nM
[20] = Example Compound 235A 1170 nM + 5-Fluorouracil 4310 nM
[21] = Example Compound 14 4420 nM + Olaparib 14800 nM
[22] = Example Compound 209A 952 nM + Olaparib 14800 nM
[23] = Example Compound 235A 1170 nM + Olaparib 14800 nM
[24] = Example Compound 14 4420 nM + Etoposide 3790 nM
[25] = Example Compound 209A 952 nM + Etoposide 3790 nM
[26] = Example Compound 235A 1170 nM + Etoposide 3790 nM
[27] = Example Compound 14 4420 nM + Cabozantinib 6000 nM
[28] = Example Compound 209A 952 nM + Cabozantinib 6000 nM
[29] = Example Compound 235A 1170 nM + Cabozantinib 6010 nM
[30] = Example Compound 14 4420 nM + Lapatinib 6000 nM
[31] = Example Compound 209A 952 nM + Lapatinib 6000 nM
[32] = Example Compound 235A 1170 nM + Lapatinib 6010 nM
[33] = Example Compound 14 2950 nM + Sunitinib 1870 nM
[34] = Example Compound 14 4420 nM + Sunitinib 2800 nM
[35] = Example Compound 209A 635 nM + Sunitinib 1870 nM
[36] = Example Compound 209A 952 nM + Sunitinib 2800 nM
[37] = Example Compound 235A 780 nM + Sunitinib 1870 nM
[38] = Example Compound 235A 1170 nM + Sunitinib 2810 nM
[39] = Example Compound 14 4420 nM + Talazoparib 7990 nM
[40] = Example Compound 209A 952 nM + Talazoparib 8000 nM
[41] = Example Compound 235A 1170 nM + Talazoparib 8000 nM
[42] = Example Compound 14 4420 nM + Oxaliplatin 1060 nM
[43] = Example Compound 209A 952 nM + Oxaliplatin 1060 nM
[44] = Example Compound 235A 1170 nM + Oxaliplatin 1060 nM

COc1cc(C(N)=O)ccc1S(=O)(=O)N[C@H](c1n[nH]c(=O)o1)[C@H](C)c1c(F)ccc(C)c1C [Example 346, 4-(N-((1S,2R)-(6-fluoro-2,3-dimethylphenyl)-1-(5-oxo-4,5-dihydro-1,3,4-oxadiazol-2 yl)propyl)sulfamoyl)-3-methoxybenzamide]
IC50 [1]: 420 nM

COc1cc(N)ccc1S(=O)(=O)N[C@H](c1n[nH]c(=O)o1)[C@H](C)c1cccc2c1CCC2 [Example 270, 4-amino-N-((1S,2R)-2-(2,3-dihydro-1H-inden-4-yl)-1-(5-oxo-4,5-dihydro-1,3,4-oxadiazol-2-yl)propyl)-2-methoxybenzenesulfonamide]
IC50 [1]: 730 nM

CO[C@@H]1[C@H](N(C)C(=O)c2ccccc2)C[C@H]2O[C@]1(C)n1c3ccccc3c3c4c(c5c6ccccc6n2c5c31)C(=O)NC4 [Midostaurin, midostaurin]
CI value [2, 3]: 0.719 | Fa value [2, 3]: 0.8117 | CI value [2, 4]: 0.583 | Fa value [2, 4]: 0.8520 | CI value [2, 5]: 0.775 | Fa value [2, 5]: 0.7639

O=c1[nH]c(=O)n([C@H]2C[C@H](O)[C@@H](CO)O2)cc1C(F)(F)F [Trifluridine, trifluridine]
CI value [2, 6]: 0.892 | Fa value [2, 6]: 0.4363 | CI value [2, 7]: 0.844 | Fa value [2, 7]: 0.6485 | CI value ([2]; Example Compound 14 4420 nM + Trifluridine 645 nM): 0.678 | CI value ([2]; Example Compound 14 6640 nM + Trifluridine 969 nM): 0.791 | CI value [2, 8]: 0.897 | Fa value [2, 8]: 0.5907 | CI value ([2]; Example Compound 209A 952 nM + Trifluridine 646 nM): 0.733 | CI value ([2]; Example Compound 209A 1430 nM + Trifluridine 970 nM): 0.775 | CI value [2, 9]: 0.869 | Fa value [2, 9]: 0.5850 | CI value ([2]; Example Compound 235A 1170 nM + Trifluridine 646 nM): 0.680 | CI value ([2]; Example Compound 235A 1750 nM + Trifluridine 967 nM): 0.739

CCNC(=O)c1noc(-c2cc(C(C)C)c(O)cc2O)c1-c1ccc(CN2CCOCC2)cc1 [Luminespib, luminespib]
CI value [2, 10]: 0.786 | Fa value [2, 10]: 0.8373 | CI value [2, 11]: 0.832 | Fa value [2, 11]: 0.8172 | CI value [2, 12]: 0.819 | Fa value [2, 12]: 0.8795

Nc1ncn([C@@H]2O[C@H](CO)[C@@H](O)[C@H]2O)c(=O)n1 [Azacytidine, azacitidine]
CI value [2, 13]: 0.744 | Fa value [2, 13]: 0.7570 | CI value [2, 14]: 0.850 | Fa value [2, 14]: 0.6005 | CI value [2, 15]: 0.520 | Fa value [2, 15]: 0.8264 | CI value [2, 16]: 0.822 | Fa value [2, 16]: 0.5392 | CI value [2, 17]: 0.767 | Fa value [2, 17]: 0.6909

O=c1[nH]cc(F)c(=O)[nH]1 [5-Fluorouracil, 5-fluorouracil]
CI value [2, 18]: 0.880 | Fa value [2, 18]: 0.6619 | CI value [2, 19]: 0.853 | Fa value [2, 19]: 0.7187 | CI value [2, 20]: 0.880 | Fa value [2, 20]: 0.6738

O=C(c1cc(Cc2n[nH]c(=O)c3ccccc23)ccc1F)N1CCN(C(=O)C2CC2)CC1 [Olaparib, olaparib]
CI value [2, 21]: 0.668 | Fa value [2, 21]: 0.7031 | CI value [2, 22]: 0.478 | Fa value [2, 22]: 0.7947 | CI value [2, 23]: 0.683 | Fa value [2, 23]: 0.6832

COc1cc([C@@H]2c3cc4c(cc3[C@@H](O[C@@H]3O[C@@H]5CO[C@@H](C)O[C@H]5[C@H](O)[C@H]3O)[C@H]3COC(=O)[C@H]23)OCO4)cc(OC)c1O [Etoposide, etoposide]
CI value [2, 24]: 0.707 | Fa value [2, 24]: 0.7245 | CI value [2, 25]: 0.635 | Fa value [2, 25]: 0.7460 | CI value [2, 26]: 0.763 | Fa value [2, 26]: 0.6978

COc1cc2nccc(Oc3ccc(NC(=O)C4(C(=O)Nc5ccc(F)cc5)CC4)cc3)c2cc1OC [Cabozantinib, cabozantinib]
CI value [2, 27]: 0.868 | Fa value [2, 27]: 0.7829 | CI value [2, 28]: 0.486 | Fa value [2, 28]: 0.8982 | CI value [2, 29]: 0.871 | Fa value [2, 29]: 0.7659

CS(=O)(=O)CCNCc1ccc(-c2ccc3ncnc(Nc4ccc(OCc5cccc(F)c5)c(Cl)c4)c3c2)o1 [Lapatinib, lapatinib]
CI value [2, 30]: 0.512 | Fa value [2, 30]: 0.8641 | CI value [2, 31]: 0.443 | Fa value [2, 31]: 0.8816 | CI value [2, 32]: 0.417 | Fa value [2, 32]: 0.8726

CCN(CC)CCNC(=O)c1c(C)[nH]c(/C=C2\C(=O)Nc3ccc(F)cc32)c1C [Sunitinib, sunitinib]
CI value [2, 33]: 0.693 | Fa value [2, 33]: 0.7017 | CI value [2, 34]: 0.728 | Fa value [2, 34]: 0.8248 | CI value [2, 35]: 0.688 | Fa value [2, 35]: 0.6919 | CI value [2, 36]: 0.723 | Fa value [2, 36]: 0.8234 | CI value [2, 37]: 0.709 | Fa value [2, 37]: 0.6775 | CI value [2, 38]: 0.675 | Fa value [2, 38]: 0.8225

Cn1ncnc1[C@H]1c2n[nH]c(=O)c3cc(F)cc(c23)N[C@@H]1c1ccc(F)cc1 [Talazoparib, talazoparib]
CI value [2, 39]: 0.540 | Fa value [2, 39]: 0.7406 | CI value [2, 40]: 0.422 | Fa value [2, 40]: 0.7998 | CI value [2, 41]: 0.585 | Fa value [2, 41]: 0.6990

O=C1[O][Pt]2([NH][C@@H]3CCCC[C@H]3[NH]2)[O]C1=O [Oxaliplatin, oxaliplatin]
CI value [2, 42]: 0.829 | Fa value [2, 42]: 0.7498 | CI value [2, 43]: 0.762 | Fa value [2, 43]: 0.7832 | CI value [2, 44]: 0.793 | Fa value [2, 44]: 0.7355
